Consider 15 compounds from ChEMBL document CHEMBL1201862, “PubChem BioAssay data set” (2004).

Test systems include DMS-114; DMS-273; HL-60; HOP-18; HOP-62; K562; KM-20L2; NCI-H226; SK-MEL-28; SNB-75; SNB-78; TK-10; U-251; UO-31; M19-MEL.
What all share (experiment): NCI-60 cell line screen, 48 h

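Cultured in 96-well plates, cells were exposed to test compound for 48 hours across five concentrations. GI50 marks 50% less growth.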 Activity calls are given as the source filed them. Cut-off read from the data, not from the text of the source: active = GI50 up to about 1.1 µM and inactive = higher.

In the case of `C/C(CC(=O)Nc1ccc(C)c(C)c1)=N\N(c1ccccc1)c1ccccc1`, the GI50 with DMS-114 is 18.3 µM (inactive); in the assay on DMS-273 it was 17.6 µM (inactive); in the assay on HL-60, 88.1 µM (inactive); in the assay on HOP-18, > 100 µM (inactive); in the assay on HOP-62, > 100 µM (inactive); in the assay with K562, 26.2 µM (inactive). The GI50 with KM-20L2 was 13.3 µM (inactive); with NCI-H226 it was > 100 µM (inactive); in the assay with SK-MEL-28, 68.1 µM (inactive); in the assay on SNB-75, 65.9 µM (inactive); with SNB-78, > 100 µM (inactive); in the assay on TK-10, > 100 µM (inactive). In addition, the GI50 is 15.2 µM (inactive) with U-251 and 46 µM (inactive) in the assay with UO-31.
As to `CC(=O)OC1COC(n2c(=S)n(-c3ccccc3)c(=O)c3cc(Br)ccc32)C(OC(C)=O)C1OC(C)=O` (stereo not given), the GI50 with DMS-114 is 51.6 µM (inactive); in the assay on DMS-273 it was 45.8 µM (inactive); in the assay on HL-60 it was > 100 µM (inactive); with HOP-18, > 100 µM (inactive); in the assay with HOP-62 it was 19.5 µM (inactive); with K562 it was > 100 µM (inactive). In addition, the GI50 in the assay with KM-20L2 is > 100 µM (inactive); in the assay on M19-MEL, 53.6 µM (inactive); in the assay on NCI-H226 it was 83.4 µM (inactive); with SK-MEL-28, 37.8 µM (inactive); with SNB-75 it was 7.11 µM (inactive); in the assay with SNB-78 it was 29 µM (inactive). The GI50 is 14.6 µM (inactive) in the assay with U-251 and > 100 µM (inactive) with UO-31.
As to `CC1C=C(OC(=O)c2ccccc2)C(=O)C(n2cc(F)c(=O)n(C(=O)c3ccccc3)c2=O)O1` (stereo not given), the GI50 in the assay with DMS-114 is 42.1 µM (inactive); in the assay on DMS-273, 37.4 µM (inactive); in the assay on HL-60, 23.9 µM (inactive); with HOP-18 it was > 100 µM (inactive); with HOP-62, > 100 µM (inactive); in the assay with K562 it was 25.4 µM (inactive). Besides, the GI50 in the assay with KM-20L2 is 32.1 µM (inactive); in the assay on M19-MEL it was 39.3 µM (inactive); with SK-MEL-28, 46.8 µM (inactive); with SNB-75, 49.2 µM (inactive); with SNB-78 it was 51.2 µM (inactive); in the assay on TK-10 it was 69.3 µM (inactive). The GI50 with U-251 is 37.3 µM (inactive); with UO-31, 93.3 µM (inactive).
With `CCOC(=O)NN1C(=O)C(=P(c2ccccc2)(c2ccccc2)c2ccccc2)C(C(=O)OC)=C1C`, the GI50 in the assay with DMS-114, in the assay with DMS-273, in the assay on HL-60, with HOP-18, with HOP-62 and with K562 was > 100 µM (inactive) in each case. The GI50 in the assay with KM-20L2, in the assay on M19-MEL, in the assay with NCI-H226, with SNB-75, in the assay on SNB-78 and with TK-10 was > 100 µM (inactive) in each case. Further, the GI50 in the assay with U-251 and in the assay with UO-31 was > 100 µM (inactive) each time.
For `CC1NOC(=O)C1/N=N/c1ccccc1Cl` (stereo not given), the GI50 in the assay with DMS-114 was 34.7 µM (inactive); in the assay with HL-60, 20 µM (inactive); in the assay on HOP-18, 35 µM (inactive); with HOP-62, 92.3 µM (inactive); in the assay with K562, 40.7 µM (inactive); with KM-20L2 it was 68.4 µM (inactive). For the same compound, the GI50 was 23 µM (inactive) in the assay on M19-MEL; 32.7 µM (inactive) in the assay with SK-MEL-28; 21.2 µM (inactive) with SNB-75; 52.5 µM (inactive) with SNB-78; 90.4 µM (inactive) in the assay on TK-10; 42.4 µM (inactive) in the assay on U-251. Moreover, in the assay with UO-31, the GI50 was 13.9 µM (inactive).
As for `Cn1cc(-c2ccc3c4ccccc4n(C)c3c2)c2ccccc21`, the GI50 in the assay on DMS-114 was > 100 µM (inactive); in the assay on HL-60, 75 µM (inactive); with HOP-18, > 100 µM (inactive); in the assay with HOP-62, > 100 µM (inactive); in the assay with K562, 67.9 µM (inactive); with KM-20L2, > 100 µM (inactive). Moreover, the GI50 in the assay on M19-MEL, with NCI-H226, in the assay with SK-MEL-28, in the assay with SNB-75, with SNB-78 and in the assay on TK-10 was > 100 µM (inactive) throughout. In addition, the GI50 in the assay with U-251 and with UO-31 was > 100 µM (inactive) in each case.
`CN(NC1OC(CO)C(O)C(O)C1O)c1ccccc1` (stereo not given): the GI50 in the assay with DMS-273, in the assay with HL-60, in the assay on HOP-18, in the assay on HOP-62, with K562 and with KM-20L2 was > 100 µM (inactive) throughout. The GI50 in the assay with M19-MEL, with NCI-H226, in the assay with SK-MEL-28, in the assay on SNB-78, in the assay on TK-10 and in the assay with U-251 was > 100 µM (inactive) throughout.
For `COC(OC)c1cccc2c1C(=O)CCC1(O)c3ccccc3C1C2` (stereo not given), the GI50 in the assay on DMS-114 was 39.1 µM (inactive); in the assay with DMS-273, > 100 µM (inactive); in the assay with HL-60 it was 35.2 µM (inactive); in the assay with HOP-18 it was 91.6 µM (inactive); with HOP-62, > 100 µM (inactive); with K562, 55.5 µM (inactive). For the same compound, the GI50 in the assay with M19-MEL is > 100 µM (inactive); in the assay on NCI-H226, 83.8 µM (inactive); with SK-MEL-28 it was > 100 µM (inactive); in the assay with SNB-75 it was > 100 µM (inactive); in the assay with SNB-78, > 100 µM (inactive); with TK-10, > 100 µM (inactive). In addition, the GI50 in the assay with UO-31 was > 100 µM (inactive).
`CCCCCCCCCCOC(=O)c1cc[n+](C)cc1`: the GI50 is 18 µM (inactive) with DMS-114; 17.3 µM (inactive) in the assay with DMS-273; 17.8 µM (inactive) with HL-60; 42.7 µM (inactive) in the assay on HOP-18; 16.8 µM (inactive) with HOP-62; 16.3 µM (inactive) in the assay on K562. Moreover, the GI50 was 17.8 µM (inactive) in the assay on M19-MEL; 18.1 µM (inactive) in the assay with NCI-H226; 17.4 µM (inactive) in the assay on SK-MEL-28; 19.3 µM (inactive) in the assay with SNB-75; 17.9 µM (inactive) with SNB-78; 17.1 µM (inactive) in the assay with TK-10. The GI50 was 15.7 µM (inactive) in the assay on U-251 and 16.5 µM (inactive) with UO-31.
Turning to `COc1ccc(C2=Nc3ccccc3SC(C)C2)cc1OC` (stereo not given), the GI50 is 19.4 µM (inactive) in the assay with DMS-114; 16.7 µM (inactive) with DMS-273; 22.4 µM (inactive) with HL-60; > 10 µM (inactive) in the assay on HOP-18; 25.5 µM (inactive) with K562; 18.8 µM (inactive) in the assay on KM-20L2. The GI50 in the assay on NCI-H226 was 20.4 µM (inactive); in the assay on SK-MEL-28, 24.6 µM (inactive); with SNB-75, 14.3 µM (inactive); in the assay with SNB-78, 27.4 µM (inactive); with TK-10 it was 29.8 µM (inactive); in the assay with U-251 it was 17.2 µM (inactive). Moreover, the GI50 with UO-31 was 17.8 µM (inactive).
Take `COc1ccc2c(C3(O)CCNCC3)c[nH]c2c1`: the GI50 in the assay with DMS-273, in the assay on HL-60, in the assay on HOP-18, with HOP-62, in the assay on K562 and in the assay on KM-20L2 was > 100 µM (inactive) each time. Moreover, the GI50 in the assay with M19-MEL, with SK-MEL-28, in the assay on SNB-75, in the assay on TK-10, in the assay on U-251 and in the assay on UO-31 was > 100 µM (inactive) in each case.
On to `COC(=O)N(C(=O)OC)C(C(=O)O)C(C)C` (stereo not given), for which the GI50 in the assay on DMS-114, with DMS-273, with HL-60, in the assay with HOP-18, in the assay with HOP-62 and with KM-20L2 was > 100 µM (inactive) throughout. For the same compound, the GI50 in the assay on M19-MEL, with NCI-H226, in the assay with SK-MEL-28, in the assay on SNB-75, in the assay with SNB-78 and in the assay with TK-10 was > 100 µM (inactive) each time. The GI50 with U-251 and with UO-31 was > 100 µM (inactive) each time.
Take `CC(C)C.C[N+](C)(C)C.OC(c1ccccc1)(C(F)(F)F)C(F)(F)F.OC(c1ccccc1)(C(F)(F)F)C(F)(F)F.[SiH3-]`: the GI50 with DMS-114 was 7.16 µM (inactive); with DMS-273, 10.2 µM (inactive); with HOP-18 it was 4.16 µM (inactive); in the assay on K562 it was 3.89 µM (inactive); in the assay on KM-20L2, 2.29 µM (inactive); in the assay on M19-MEL, 12.2 µM (inactive). The GI50 is 1.02 µM (active) in the assay on NCI-H226; 12.4 µM (inactive) with SK-MEL-28; 0.536 µM (active) with SNB-75; 10.3 µM (inactive) in the assay on SNB-78; 12.6 µM (inactive) in the assay on TK-10; 2.07 µM (inactive) in the assay on U-251. In the assay with UO-31, the GI50 is 5.79 µM (inactive).
On to `CC1CC(=O)C2CC(CO)=CCCC2C1(C)CC/C(=C/CO)CO` (stereo not given), for which the GI50 in the assay with DMS-114, in the assay with DMS-273, with HOP-18, with K562, with M19-MEL and in the assay on NCI-H226 was > 100 µM (inactive) each time. Also, the GI50 in the assay with SK-MEL-28, in the assay on SNB-75, in the assay on SNB-78, in the assay on TK-10, in the assay with U-251 and in the assay on UO-31 was > 100 µM (inactive) in each case.
As for `COc1ccc2c(=O)c(C)c(-c3ccccc3)oc2c1CN(C)C` [DIMEFLINE], the GI50 in the assay on DMS-273 was > 100 µM (inactive); in the assay on HOP-18, > 100 µM (inactive); in the assay on HOP-62, > 100 µM (inactive); in the assay with K562 it was > 100 µM (inactive); with KM-20L2, 97.7 µM (inactive); in the assay on NCI-H226, > 100 µM (inactive). The GI50 in the assay with SNB-78, in the assay with TK-10 and with UO-31 was > 100 µM (inactive) throughout.
